# Measurements taken from patent US11858951B2, “Boronic acid derivatives” (Merck Patent GmbH, priority 2017, dated 2024).
# Where two headings read alike, the source gives them in different places.
# Tests used:
# [1] = target: Beta5 (purified human constitutive proteasome) (Homo sapiens, UniProt P28074); assay: Determination of Beta5 activity (fluorescence intensity assay, Suc-LLVY-AMC); format: biochemical
# Experimental: Determination of Beta5 Activity:
# Measurement of Beta5 inhibition is performed in 384 well format based on fluorescence intensity assay.
# (§1) Purified human constitutive proteasome (1.25 nM) and serial diluted compounds in DMSO (range of concentrations from 30 μM to 15 pM) or controls are incubated for 20 minutes or 120 minutes (long incubation) at 25° C. in assay buffer containing 50 mM Tris pH 7.4, 0.03% SDS, 1 mM EDTA and 1% DMSO. The reaction is initiated by the addition of the fluorogenic peptide substrate, Suc-LLVY-AMC (Bachem 1-1395), at a concentration of 40 μM. After 60 minutes of incubation at 37° C., fluorescence intensity is measured at λex=350 nm and λem=450 nm with a fluorescence reader (Perkin Elmer Envision reader or equivalent).
# (§2) Unless indicated otherwise the results are obtained after incubation for 20 minutes.
# [2] = target: LMP7 (purified human immuno proteasome) (Homo sapiens, UniProt P28062); assay: Determination of LMP7 activity (fluorescence intensity assay, Suc-LLVY-AMC); format: biochemical; conditions: for Selectivity LMP7 vs Beta5: LMP7 versus Beta5, incubation for 20 minutes
# Experimental: Biological Activity Determination of LMP7 Activity:
# Measurement of LMP7 inhibition is performed in 384 well format based on fluorescence intensity assay.
# as §1, with “immuno” for “constitutive”, “(0.25” for “(1.25”
# as §2
# [3] = incubation for 20 minutes at 25° C., concentrations 30 μM to 15 pM, read-out: Beta5 IC50
# [4] = incubation for 20 minutes at 25° C., concentrations 30 μM to 15 pM, read-out: LMP7 IC50
Compound,"IC50 [1, 3] [M]",Selectivity LMP7 vs Beta5 [2],"IC50 [2, 4] [M]","IC50 ([1]; long incubation: 120 min at 25° C., read-out: Beta5 IC50 (M) (long))","IC50 ([2]; long incubation: 120 min at 25° C., read-out: LMP7 IC50 (M) (long))"
"O=C(N[C@@H](Cc1coc2ccccc12)B(O)O)[C@@H]1C[C@H]2CC[C@@H]1O2 [Compound No. 9, [(1R)-2-(1-benzofuran-3-yl)-1-{[(1S,2R,4R)-7-oxabicyclo[2.2.1]heptan-2-yl]formamido}ethyl]boronic acid]",5e-07 to 5e-06,+++++ (Selectivity ≥700),< 5e-08,,
"O=C(N[C@@H](Cc1coc2c(Cl)cccc12)B(O)O)[C@@H]1C[C@H]2CC[C@@H]1O2 [Compound No. 13, [(1R)-2-(7-chloro-1-benzofuran-3-yl)-1-{[(1S,2R,4R)-7-oxabicyclo[2.2.1]heptan-2-yl]formamido}ethyl]boronic acid]",5e-07 to 5e-06,+++++ (Selectivity ≥700),< 5e-08,,
"O=C(N[C@@H](Cc1coc2ccccc12)B(O)O)[C@H]1C[C@@H]2CC[C@H]1O2 [compound 8, [(1R)-2-(1-benzofuran-3-yl)-1-{[(1R,2S,4S)-7-oxabicyclo[2.2.1]heptan-2-yl]formamido}ethyl]boronic acid]",5e-06 to 3e-05,++++ (500 ≤ Selectivity < 700),< 5e-08,,
"O=C(N[C@@H](Cc1coc2c(Cl)cccc12)B(O)O)[C@H]1C[C@@H]2CC[C@H]1O2 [compound 12, [(1R)-2-(7-chloro-1-benzofuran-3-yl)-1-{[(1R,2S,4S)-7-oxabicyclo[2.2.1]heptan-2-yl]formamido}ethyl]boronic acid]",5e-06 to 3e-05,+++++ (Selectivity ≥700),< 5e-08,,
"O=C(N[C@@H](C[C@@H]1COc2ccccc21)B(O)O)[C@]12CC[C@H](O1)c1ccccc12 [compound 16, [(1R)-2-[(3S)-2,3-dihydro-1-benzofuran-3-yl]-1-{[(1R,8S)-11-oxatricyclo[6.2.1.0^2,7]undeca-2(7),3,5-trien-1-yl]formamido}ethyl]boronic acid]",5e-06 to 3e-05,+++++ (Selectivity ≥700),< 5e-08,,
"O=C(N[C@@H](Cc1coc2ccccc12)B(O)O)[C@H]1C2C(=O)N(C3CC3)C[C@]23C=C[C@H]1O3 (stereo partly drawn) [compound 17, [(1R)-2-(1-benzofuran-3-yl)-1-{[(1S,6S,7R)-3-cyclopropyl-4-oxo-10-oxa-3-azatricyclo[5.2.1.0^1,5]dec-8-en-6-yl]formamido}ethyl]boronic acid]",5e-06 to 3e-05,++ (100 ≤ Selectivity < 300),< 5e-08,,
"O=C(N[C@@H](C[C@@H]1COc2ccccc21)B(O)O)[C@@]12CC[C@@H](O1)c1ccccc12 [compound 18, [(1R)-2-[(3S)-2,3-dihydro-1-benzofuran-3-yl]-1-{[(1S,8R)-11-oxatricyclo[6.2.1.0^2,7]undeca-2(7),3,5-trien-1-yl]formamido}ethyl]boronic acid]",5e-06 to 3e-05,+++++ (Selectivity ≥700),< 5e-08,,
"Cc1cccc2c(C[C@H](NC(=O)[C@]34CC[C@H](O3)c3ccccc34)B(O)O)coc12 [compound 19, [(1R)-2-(7-methyl-1-benzofuran-3-yl)-1-{[(1R,8S)-11-oxatricyclo[6.2.1.0^2,7]undeca-2,4,6-trien-1-yl]formamido}ethyl]boronic acid]",5e-06 to 3e-05,+++++ (Selectivity ≥700),< 5e-08,,
"Cc1cccc2c(C[C@H](NC(=O)[C@@]34CC[C@@H](O3)c3ccccc34)B(O)O)coc12 [compound 20, [(1R)-2-(7-methyl-1-benzofuran-3-yl)-1-{[(1S,8R)-11-oxatricyclo[6.2.1.0^2,7]undeca-2,4,6-trien-1-yl]formamido}ethyl]boronic acid]",5e-06 to 3e-05,++++ (500 ≤ Selectivity < 700),< 5e-08,,
"C[C@]12CC[C@](C(=O)N[C@@H](C[C@@H]3COc4ccccc43)B(O)O)(O1)c1ccccc12 [compound 21, [(1R)-2-[(3S)-2,3-dihydro-1-benzofuran-3-yl]-1-{[(1S,8R)-8-methyl-11-oxatricyclo[6.2.1.0^2,7]undeca-2,4,6-trien-1-yl]formamido}ethyl]boronic acid]",5e-06 to 3e-05,+++++ (Selectivity ≥700),< 5e-08,,
"O=C(N[C@@H](Cc1coc2ccccc12)B(O)O)C1C[C@H]2O[C@@H]1c1ccccc12 (stereo partly drawn) [compound 22, [(1R)-2-(1-benzofuran-3-yl)-1-{[(1R,8S)-11-oxatricyclo[6.2.1.0^2,7]undeca-2(7),3,5-trien-9-yl]formamido}ethyl]boronic acid]",5e-06 to 3e-05,++ (100 ≤ Selectivity < 300),< 5e-08,,
"C[C@@]12CC[C@@](C(=O)N[C@@H](C[C@@H]3COc4ccccc43)B(O)O)(O1)c1ccccc12 [compound 23, [(1R)-2-[(3S)-2,3-dihydro-1-benzofuran-3-yl]-1-{[(1R,8S)-8-methyl-11-oxatricyclo[6.2.1.0^2,7]undeca-2,4,6-trien-1-yl]formamido}ethyl]boronic acid]",5e-06 to 3e-05,+++++ (Selectivity ≥700),< 5e-08,,
"O=C(N[C@@H](Cc1coc2ccccc12)B(O)O)C1C[C@@H]2O[C@H]1c1ccccc12 (stereo partly drawn) [compound 24, [(1R)-2-(1-benzofuran-3-yl)-1-{[(1S,8R)-11-oxatricyclo[6.2.1.0^2,7]undeca-2(7),3,5-trien-9-yl]formamido}ethyl]boronic acid]",5e-08 to 5e-07,+ (Selectivity <100),< 5e-08,,
"Cc1ccc(C[C@H](NC(=O)[C@@H]2C[C@H]3CC[C@@H]2O3)B(O)O)c(C)c1 [compound 25, [(1R)-2-(2,4-dimethylphenyl)-1-{[(1S,2R,4R)-7-oxabicyclo[2.2.1]heptan-2-yl]formamido}ethyl]boronic acid]",5e-06 to 3e-05,++ (100 ≤ Selectivity < 300),5e-08 to 5e-07,,

# Now from value to molecule:
"IC50 [1, 3] [M]",Selectivity LMP7 vs Beta5 [2],"IC50 [2, 4] [M]","IC50 ([1]; long incubation: 120 min at 25° C., read-out: Beta5 IC50 (M) (long))","IC50 ([2]; long incubation: 120 min at 25° C., read-out: LMP7 IC50 (M) (long))",Compound
5e-06 to 3e-05,+++++ (Selectivity ≥700),< 5e-08,,,"O=C(N[C@@H](C[C@@H]1COc2ccccc21)B(O)O)[C@@H]1C[C@H]2CC[C@@H]1O2 [Compound No. 1, [(1R)-2-[(3S)-2,3-dihydro-1-benzofuran-3-yl]-1-{[(1S,2R,4R)-7-oxabicyclo[2.2.1]heptan-2-yl]formamido}ethyl]boronic acid]"
5e-06 to 3e-05,+++ (300 ≤ Selectivity < 500),5e-08 to 5e-07,,,"O=C(N[C@@H](C[C@@H]1COc2ccccc21)B(O)O)[C@H]1C[C@@H]2CC[C@H]1O2 [compound 2, [(1R)-2-[(3S)-2,3-dihydro-1-benzofuran-3-yl]-1-{[(1R,2S,4S)-7-oxabicyclo[2.2.1]heptan-2-yl]formamido}ethyl]boronic acid]"
> 3e-05,,5e-07 to 5e-06,,,"O=C(N[C@@H](Cc1ccsc1)B(O)O)[C@@H]1C[C@H]2CC[C@@H]1O2 [compound 3, [(1R)-1-{[(1S,2R,4R)-7-oxabicyclo[2.2.1]heptan-2-yl]formamido}-2-(thiophen-3-yl)ethyl]boronic acid]"
> 3e-05,,5e-07 to 5e-06,,,"Cc1cccc2c1OC[C@@H]2C[C@H](NC(=O)[C@@H]1C[C@H]2CC[C@@H]1O2)B(O)O [compound 14, [(1R)-2-[(3R)-7-methyl-2,3-dihydro-1-benzofuran-3-yl]-1-{[(1S,2R,4R)-7-oxabicyclo[2.2.1]heptan-2-yl]formamido}ethyl]boronic acid]"
5e-06 to 3e-05,+++++ (Selectivity ≥700),< 5e-08,,,"Cc1cccc2c1OC[C@H]2C[C@H](NC(=O)[C@@H]1C[C@H]2CC[C@@H]1O2)B(O)O [compound 15, [(1R)-2-[(3S)-7-methyl-2,3-dihydro-1-benzofuran-3-yl]-1-{[(1S,2R,4R)-7-oxabicyclo[2.2.1]heptan-2-yl]formamido}ethyl]boronic acid]"
,,,> 3e-05,5e-07 to 5e-06,"O=C(N[C@@H](CC1CCCCC1)B(O)O)[C@@H]1C[C@H]2CC[C@@H]1O2 [compound 26, [(1R)-2-cyclohexyl-1-{[(1S,2R,4R)-7-oxabicyclo[2.2.1]heptan-2-yl]formamido}ethyl]boronic acid]"
> 3e-05,,5e-07 to 5e-06,,,"O=C(N[C@@H](CCc1ccccc1)B(O)O)[C@@H]1C[C@H]2CC[C@@H]1O2 [compound 27, [(1R)-1-{[(1S,2R,4R)-7-oxabicyclo[2.2.1]heptan-2-yl]formamido}-3-phenylpropyl]boronic acid]"
> 3e-05,,5e-07 to 5e-06,,,"CC(C)C[C@H](NC(=O)[C@@H]1C[C@H]2CC[C@@H]1O2)B(O)O [compound 28, [(1R)-3-methyl-1-{[(1S,2R,4R)-7-oxabicyclo[2.2.1]heptan-2-yl]formamido}butyl]boronic acid]"
